This experiment addresses T1, GR (Homo sapiens, UniProt P04150).
T1 construct: expressed in transfected cells; host or cells: CHO-K1
T1 sequence (P04150 1-777): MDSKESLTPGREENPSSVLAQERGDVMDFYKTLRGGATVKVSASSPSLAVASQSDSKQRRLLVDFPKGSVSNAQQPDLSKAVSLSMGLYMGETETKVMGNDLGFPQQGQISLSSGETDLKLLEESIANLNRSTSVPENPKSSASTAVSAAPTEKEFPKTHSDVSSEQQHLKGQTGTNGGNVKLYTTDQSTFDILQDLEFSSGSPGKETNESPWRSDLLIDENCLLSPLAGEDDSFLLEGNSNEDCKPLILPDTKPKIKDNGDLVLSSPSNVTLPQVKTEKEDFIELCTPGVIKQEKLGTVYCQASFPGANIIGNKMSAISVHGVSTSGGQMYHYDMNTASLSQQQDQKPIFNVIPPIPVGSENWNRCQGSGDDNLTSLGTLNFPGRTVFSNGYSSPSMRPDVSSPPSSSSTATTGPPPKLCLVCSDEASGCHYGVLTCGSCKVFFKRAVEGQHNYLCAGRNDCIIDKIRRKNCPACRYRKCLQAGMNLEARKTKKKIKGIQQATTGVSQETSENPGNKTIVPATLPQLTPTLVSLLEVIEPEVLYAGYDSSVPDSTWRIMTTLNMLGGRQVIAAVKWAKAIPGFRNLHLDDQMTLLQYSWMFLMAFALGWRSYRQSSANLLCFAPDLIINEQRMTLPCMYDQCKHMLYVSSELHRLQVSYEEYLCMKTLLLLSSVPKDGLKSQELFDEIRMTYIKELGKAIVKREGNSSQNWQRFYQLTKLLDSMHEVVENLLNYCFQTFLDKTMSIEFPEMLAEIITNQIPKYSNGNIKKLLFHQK
Nature of the experiment: In Vitro GR Luciferase Reporter Assay (antagonist mode, CHO-K1-GR-MMTV-Luc reporter cells). It is filed as cell-based. The source says: Example A: In Vitro GR Luciferase Reporter Assay
Cell Line: CHO-K1-GR-MMTV-Luc reporter cells
Culture Media: DMEM (with phenol red)+10% FBS
Assay Media: DMEM (without phenol red)+10% CSS
Culture CHO-K1I-GR-MMTV-Luc reporter cells in 15 cm plates in Culture Media at conditions less than 90% confluence.
Prepare 200×DMSO 1:5 serial dilutions of control and test compounds in 96-well non-sterile V bottom plate in DMSO, 8serial dilutions for each compound.
Prepare 5× Assay Media diluted compound serial dilutions in 96-well non-sterile V bottom plate: Add 97.5 uL/well of Assay Media into 96-well then add 2.5 ul of 200× concentration of compounds and mix well.
Seed cells for Antagonist Assay: […] CHO-K1-GR-MMTV-Luc reporter cells were seeded in a Corning 3707 flat clear bottom 384-well white TC plate in 20 ul of Assay Media containing 12.5 nM Dexamethasone (final concentration=10 nM).
Add compounds: 5 ul of assay media diluted compounds were added to appropriate wells and followed a quick spin (1000 rpm, 10 sec) to bring media and cells to the bottom of plate. The plates were covered with SealMate film to avoid evaporation and placed in 37° C. incubator for approximately 18-24 hours.
Read plates: Equilibrate appropriate amount of Promega OneGlo luciferase reagent to room temperature. Remove the plates from incubator and add 25 uL of OneGlo reagent/well by multiple channel pipette and read the plates with Tecan F500 luminometer within 3 minutes.
The ability of the compounds disclosed herein to inhibit GR activity was quantified and the respective IC50 value was determined. Table 1and Table 2provide the cellular IC50 values of compounds disclosed herein.

[1] abbreviates: antagonist mode, 10 nM Dexamethasone.
The mark [2] stands for this setting: antagonist assay with 10 nM Dexamethasone, 18-24 hours.

The structures appear in SMILES notation.

Consider `C[C@@]1(S(=O)(=O)c2ccccc2)CCC2=Cc3c(cnn3-c3ccc(F)cc3)C[C@]2(C(=O)c2ccccn2)C1` (single isomer, unassigned) [Example 116, ((4aS,6R)-1-(4-Fluorophenyl)-6-methyl-6-(phenylsulfonyl)-1,4,5,6,7,8-hexahydro-4aH-benzo[f]indazol-4a-yl)(pyridin-2-yl)methanone or ((4aS,6S)-1-(4-fluorophenyl)-6-methyl-6-(phenylsulfonyl)-1,4,5,6,7,8-hexahydro-4aH-benzo[f]indazol-4a-yl)(pyridin-2-yl)methanone], for which, under setting [1], the IC50 was at most 100 nM.

`C[C@@]1(S(=O)(=O)c2ccccc2)CCC2=Cc3c(cnn3-c3ccc(F)cc3)C[C@]2(C(=O)c2ccccn2)C1` (single isomer, unassigned) [Example 117, ((4aS,6R)-1-(4-Fluorophenyl)-6-methyl-6-(phenylsulfonyl)-1,4,5,6,7,8-hexahydro-4aH-benzo[f]indazol-4a-yl)(pyridin-2-yl)methanone or ((4aS,6S)-1-(4-fluorophenyl)-6-methyl-6-(phenylsulfonyl)-1,4,5,6,7,8-hexahydro-4aH-benzo[f]indazol-4a-yl)(pyridin-2-yl)methanone] returned a half-maximal inhibitory concentration (IC50) under setting [1] of 100 to 1000 nM.

In the case of `Cn1cc(S(=O)(=O)C[C@@H]2CCC3=Cc4c(cnn4-c4ccc(F)cc4)C[C@]3(C(=O)c3cc(C(F)(F)F)ccn3)C2)cn1` (single isomer, unassigned) [Example 119], the IC50 under setting [1] is at most 100 nM.

With `C[C@H]([C@H]1CCC2=Cc3c(cnn3-c3ccc(F)cc3)C[C@]2(C(=O)c2cc(C(F)(F)F)ccn2)C1)S(=O)(=O)c1cnn(C)c1` (single isomer, unassigned) [Example 120, ((4aR,6S)-1-(4-Fluorophenyl)-6-((R)-1-((1-methyl-1H-pyrazol-4-yl)sulfonyl)ethyl)-1,4,5,6,7,8-hexahydro-4aH-benzo[f]indazol-4a-yl)(4-(trifluoromethyl)pyridin-2-yl)methanone or ((4aR,6S)-1-(4-fluorophenyl)-6-((S)-1-((1-methyl-1H-pyrazol-4-yl)sulfonyl)ethyl)-1,4,5,6,7,8-hexahydro-4aH-benzo[f]indazol-4a-yl)(4-(trifluoromethyl)pyridin-2-yl)methanone], under setting [1], the IC50 was at most 100 nM.

`C[C@H]([C@H]1CCC2=Cc3c(cnn3-c3ccc(F)cc3)C[C@]2(C(=O)c2cc(C(F)(F)F)ccn2)C1)S(=O)(=O)c1cnn(C)c1` (single isomer, unassigned) [Example 121, ((4aR,6S)-1-(4-Fluorophenyl)-6-((R)-1-((1-methyl-1H-pyrazol-4-yl)sulfonyl)ethyl)-1,4,5,6,7,8-hexahydro-4aH-benzo[f]indazol-4a-yl)(4-(trifluoromethyl)pyridin-2-yl)methanone or ((4aR,6S)-1-(4-fluorophenyl)-6-((S)-1-((1-methyl-1H-pyrazol-4-yl)sulfonyl)ethyl)-1,4,5,6,7,8-hexahydro-4aH-benzo[f]indazol-4a-yl)(4-(trifluoromethyl)pyridin-2-yl)methanone] came in with an IC50 under setting [1] of at most 100 nM.

On to `Cc1ccc(S(=O)(=O)[C@H]2CCC3=Cc4c(cnn4-c4ccc(F)cc4)C[C@]3(C(=O)c3ccccn3)C2)cc1` [Example 1, ((4aS,6S)-1-(4-Fluorophenyl)-6-tosyl-1,4,5,6,7,8-hexahydro-4aH-benzo[f]indazol-4a-yl)(pyridin-2-yl)methanone], for which the half-inhibitory concentration (IC50) under setting [2] is at most 100 nM.

In turn, `Cc1ccc(S(=O)(=O)[C@@H]2CCC3=Cc4c(cnn4-c4ccc(F)cc4)C[C@]3(C(=O)c3ccccn3)C2)cc1` [Example 2, ((4aS,6R)-1-(4-Fluorophenyl)-6-tosyl-1,4,5,6,7,8-hexahydro-4aH-benzo[f]indazol-4a-yl)(pyridin-2-yl)methanone] returned an IC50 under setting [2] of at most 100 nM.

Under setting [2], `Cn1cc(S(=O)(=O)[C@H]2CCC3=Cc4c(cnn4-c4ccc(F)cc4)C[C@]3(C(=O)c3cc(C(F)(F)F)ccn3)C2)cn1` [Example 3, ((4aS,6S)-1-(4-Fluorophenyl)-6-((1-methyl-1H-pyrazol-4-yl)sulfonyl)-1,4,5,6,7,8-hexahydro-4aH-benzo[f]indazol-4a-yl)(4-(trifluoromethyl)pyridin-2-yl)methanone] displayed an IC50 of at most 100 nM.

Turning to `O=C(c1ccccc1)N(C1CC1)[C@H]1CCC2=Cc3c(cnn3-c3ccc(F)cc3)C[C@]2(C(=O)c2ccccn2)C1` [Example 6, N-Cyclopropyl-N-((4aS,6S)-1-(4-fluorophenyl)-4a-picolinoyl-4,4a,5,6,7,8-hexahydro-1H-benzo[f]indazol-6-yl)benzamide], the IC50 under setting [2] was at most 100 nM.

Under setting [2], `O=C(c1ccccn1)[C@]12Cc3cnn(-c4ccc(F)cc4)c3C=C1CC[C@H](S(=O)(=O)N1CCCCC1)C2` [Example 7, [(4aS,6S)-1-(4-Fluorophenyl)-6-(1-piperidylsulfonyl)-5,6,7,8-tetrahydro-4H-benzo[f]indazol-4a-yl]-(2-pyridyl)methanone] registered an IC50 of at most 100 nM.

In the case of `Cc1ccc(S(=O)(=O)[C@H]2CCC3=Cc4c(cnn4-c4ccc(F)cc4)C[C@]3(C(=O)c3nccs3)C2)cc1` [Example 8, ((4aS,6S)-1-(4-fluorophenyl)-6-tosyl-1,4,5,6,7,8-hexahydro-4aH-benzo[f]indazol-4a-yl)(thiazol-2-yl)methanone], the IC50 under setting [2] is at most 100 nM.

`Cc1ccc(S(=O)(=O)[C@@H]2CCC3=Cc4c(cnn4-c4ccc(F)cc4)C[C@]3(C(=O)c3nccs3)C2)cc1` [Example 9, ((4aS,6R)-1-(4-fluorophenyl)-6-tosyl-1,4,5,6,7,8-hexahydro-4aH-benzo[f]indazol-4a-yl)(thiazol-2-yl)methanone] returned an IC50 under setting [2] of at most 100 nM.

`O=C(c1ccccn1)[C@]12Cc3cnn(-c4ccc(F)cc4)c3C=C1CC[C@H](S(=O)(=O)c1ccc(C(F)(F)F)cc1)C2` [Example 10, ((4aS,6S)-1-(4-fluorophenyl)-6-((4-(trifluoromethyl)phenyl)sulfonyl)-1,4,5,6,7,8-hexahydro-4aH-benzo[f]indazol-4a-yl)(pyridin-2-yl)methanone]: the IC50 under setting [2] was at most 100 nM.

In turn, `O=C(c1ccccn1)[C@]12Cc3cnn(-c4ccc(F)cc4)c3C=C1CC[C@@H](S(=O)(=O)c1ccc(C(F)(F)F)cc1)C2` [Example 11, ((4aS,6R)-1-(4-fluorophenyl)-6-((4-(trifluoromethyl)phenyl)sulfonyl)-1,4,5,6,7,8-hexahydro-4aH-benzo[f]indazol-4a-yl)(pyridin-2-yl)methanone] came in with an IC50 under setting [2] of at most 100 nM.

Under setting [2], `O=C(c1nccs1)[C@]12Cc3cnn(-c4ccc(F)cc4)c3C=C1CC[C@H](S(=O)(=O)c1ccc(C(F)(F)F)cc1)C2` [Example 12, ((4aS,6S)-1-(4-fluorophenyl)-6-((4-(trifluoromethyl)phenyl)sulfonyl)-1,4,5,6,7,8-hexahydro-4aH-benzo[f]indazol-4a-yl)(thiazol-2-yl)methanone] gave an IC50 of 100 to 1000 nM.

As for `O=C(c1nccs1)[C@]12Cc3cnn(-c4ccc(F)cc4)c3C=C1CC[C@@H](S(=O)(=O)c1ccc(C(F)(F)F)cc1)C2` [Example 13, ((4aS,6R)-1-(4-fluorophenyl)-6-((4-(trifluoromethyl)phenyl)sulfonyl)-1,4,5,6,7,8-hexahydro-4aH-benzo[f]indazol-4a-yl)(thiazol-2-yl)methanone], the IC50 under setting [2] lay in the range of 100 to 1000 nM.

Values taken from patent US20210122730A1, “GLUCOCORTICOID RECEPTOR MODULATORS” (ORIC Pharmaceuticals, Inc., priority 2017, published 2021).
